Assay [1] relates to DOK. The experiment in a line: Growth inhibition assay (SRB). Type of assay: cell-based.
Method: (§1) Cell lines are sub-cultured weekly and routinely screened for mycoplasma contamination.
(§2) The cells are fixed with 100 μl of pre-chilled 10% trichloroacetic acid after removal of the medium. The plates are then chilled at 4° C. for 1 h. Following this, the plates are washed twice with water and stained with 50 μl of 0.4% SRB in 1% acetic acid for 10 min at room temperature. The unbound dye is removed and the plates are washed in 1% acetic acid to further remove unbound dye. […] Growth inhibition curves are plotted and IC50 values determined.
The test system of assay [2] is Cal27. The experiment in a line: Growth inhibition assay (SRB). Type of assay: cell-based, human.
Method: as §1, §2
Assay [3] concerns HN1 ACC primary culture. The experiment in a line: cells. In kind it is cell-based, human.
The test system of assay [4] is FaDu. The experiment in a line: Growth inhibition assay (SRB). Type of assay: cell-based, human.
Method: as §1, §2
For assay [5], the system named is HN5 ACC primary culture. The experiment in a line: Growth inhibition assay (SRB). Type of assay: cell-based, human.
Assay [6] deals with HN3 ACC primary culture. The experiment in a line: cells. In kind it is cell-based, human.

Like-named read-outs stand apart in the source and are kept apart here. A value given as a limit tells only on which side of the number the result lay.

In the case of `COc1ccc(/C=C\c2cc(OC)c(OC)c(OC)c2)cc1O` [Ca4, combrestatin], the half-inhibitory concentration (IC50) in assay [1] (read-out: IC50) was 3.32 nM; in assay [2], 1.46 nM; in assay [3] (read-out: IC50) it was greater than 20 nM; in assay [4] it was 3.69 nM; in assay [5] (read-out: IC50), 3.06 nM.
In the case of `N[C@@H](Cc1ccc(N(CCCl)CCCl)cc1)C(=O)O` [Mel, melphalan], the half-maximal inhibitory concentration (IC50) was determined as 111000 nM in assay [1] (DOK, 5-7 days, read-out: IC50); 66600 nM in assay [3] (Homo sapiens); 27500 nM in assay [6] (Homo sapiens); 7300 nM in assay [5] (Homo sapiens).
Regarding `COc1cccc2c1C(=O)c1c(O)c3c(c(O)c1C2=O)C[C@@](O)(C(=O)CO)C[C@@H]3O[C@H]1C[C@H](N)[C@H](O)[C@H](C)O1` [Adr], the IC50 was 20 nM in assay [1] (DOK, 5-7 days, read-out: IC50) and 60 nM in assay [6] (read-out: IC50).
In the case of `O=c1[nH]cc(F)c(=O)[nH]1` [Compound 5FU, 5 fluorouracil], the IC50 was determined as 22000 nM in assay [1] (DOK, 5-7 days, read-out: IC50) and 4800 nM in assay [3] (Homo sapiens).
On to `CC(=O)O[C@H]1C(=O)[C@@]2(C)[C@H]([C@H](OC(=O)c3ccccc3)[C@]3(O)C[C@H](OC(=O)[C@H](O)[C@@H](NC(=O)c4ccccc4)c4ccccc4)C(C)=C1C3(C)C)[C@]1(OC(C)=O)CO[C@@H]1C[C@@H]2O` [Taxol, 5(beta),20-Epoxy-1,2(alpha),4,7(beta), 10(beta), b 13(alpha)-hexahydroxytax-11-en-9-one4,10-diacetate 2-benzoate 13-ester with (2R ,3S )-N-benzoyl-3-phenylisoserine], for which the IC50 in assay [1] (DOK, 5-7 days, read-out: IC50) was 2.7 ng/mL; in assay [3] (Homo sapiens) it was 6.1 ng/mL; in assay [6] (Homo sapiens), 6.1 ng/mL.
Consider `CC[C@]1(O)C[C@@H]2CN(CCc3c([nH]c4ccccc34)[C@@](C(=O)OC)(c3cc4c(cc3OC)N(C)[C@H]3[C@@](O)(C(=O)OC)[C@H](OC(C)=O)[C@]5(CC)C=CCN6CC[C@]43[C@@H]65)C2)C1` [VBL, vinblastin], for which the IC50 in assay [1] (DOK, 5-7 days) stood at 0.3 ng/mL; in assay [3], 1.3 ng/mL; in assay [6], 0.9 ng/mL.
Take `CO[C@@]12[C@H](COC(N)=O)C3=C(C(=O)C(C)=C(N)C3=O)N1C[C@@H]1N[C@@H]12` [MMC, mitomycin C]: the IC50 in assay [1] (DOK, 5-7 days, read-out: IC50) turned out to be 60 nM; in assay [3] (read-out: IC50) it was 1750 nM; in assay [6] (read-out: IC50), 1160 nM.
Taken in the same sequence, the figures for `N.N.[Cl][Pt][Cl]` [Cisp, cisplatin] were 3700 nM, 5000 nM and 2800 nM.
As to `Nc1ccn([C@@H]2O[C@H](CO)[C@@H](O)C2(F)F)c(=O)n1` [Gem, gemcitabine], the half-maximal inhibitory concentration (IC50) stood at 7.06 nM in assay [1] (DOK, 5-7 days, read-out: IC50) and 1.95 nM in assay [3] (Homo sapiens).
For `CC1=C(N2CC2)C(=O)C(CO)=C(N2CC2)C1=O` [RH1], the half-inhibitory concentration (IC50) was found to be 0.33 nM in assay [1] (read-out: IC50); 0.11 nM in assay [2]; 7.11 nM in assay [3] (read-out: IC50); 0.86 nM in assay [6] (read-out: IC50); 1.34 nM in assay [4]; 0.87 nM in assay [5] (read-out: IC50).

The values above are taken from patent US20070116784A1, “Imatinib combinations for head and neck cancers” (priority 2003, published 2007).
